Experimental data published in ChEMBL document CHEMBL2016457, “Discovery of potent and orally bioavailable 17β-hydroxysteroid dehydrogenase type 3 inhibitors” (Bioorg Med Chem, 2012).
pIC50: −log10 of the molar value. The source made the active and inactive calls. The rule behind the calls is not given here.

What was measured:
[1] = target: T1, Glucocorticoid receptor (Homo sapiens) (UniProt P04150); experiment: Antagonist activity at human GR receptor expressed in human HeLa cells assessed as inhibition of DHT-induced response after 40 hrs by luciferase/beta-galactosidase-based reporter gene assay; type: functional, cell-based
T1 sequence (whole entry): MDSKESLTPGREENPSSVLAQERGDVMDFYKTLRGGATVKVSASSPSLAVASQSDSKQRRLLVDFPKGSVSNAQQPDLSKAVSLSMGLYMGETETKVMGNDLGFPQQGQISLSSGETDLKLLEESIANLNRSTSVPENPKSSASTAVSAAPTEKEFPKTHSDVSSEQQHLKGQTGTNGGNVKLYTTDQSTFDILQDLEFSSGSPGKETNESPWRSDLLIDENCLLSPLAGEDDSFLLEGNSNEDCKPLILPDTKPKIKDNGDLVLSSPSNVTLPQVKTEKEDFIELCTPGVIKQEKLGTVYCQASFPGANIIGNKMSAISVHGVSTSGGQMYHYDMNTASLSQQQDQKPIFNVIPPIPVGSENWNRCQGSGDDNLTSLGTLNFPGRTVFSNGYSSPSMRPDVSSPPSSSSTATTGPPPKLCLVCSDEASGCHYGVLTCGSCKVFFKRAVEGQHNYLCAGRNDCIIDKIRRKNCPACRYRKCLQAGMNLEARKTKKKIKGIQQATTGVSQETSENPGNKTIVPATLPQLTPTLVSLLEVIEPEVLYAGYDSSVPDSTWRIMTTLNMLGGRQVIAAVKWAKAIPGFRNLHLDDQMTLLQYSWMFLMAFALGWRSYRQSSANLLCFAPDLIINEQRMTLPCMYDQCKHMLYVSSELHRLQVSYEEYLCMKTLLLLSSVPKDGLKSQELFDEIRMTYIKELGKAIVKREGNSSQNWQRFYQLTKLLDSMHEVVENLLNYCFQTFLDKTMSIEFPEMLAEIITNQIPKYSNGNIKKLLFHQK

[2] = target: T2, Androgen receptor (Homo sapiens) (UniProt P10275); experiment: Antagonist activity at human androgen receptor expressed in human HeLa cells assessed as inhibition of DHT-induced response after 40 hrs by luciferase/beta-galactosidase-based reporter gene assay; type: functional, cell-based
T2 sequence (whole entry): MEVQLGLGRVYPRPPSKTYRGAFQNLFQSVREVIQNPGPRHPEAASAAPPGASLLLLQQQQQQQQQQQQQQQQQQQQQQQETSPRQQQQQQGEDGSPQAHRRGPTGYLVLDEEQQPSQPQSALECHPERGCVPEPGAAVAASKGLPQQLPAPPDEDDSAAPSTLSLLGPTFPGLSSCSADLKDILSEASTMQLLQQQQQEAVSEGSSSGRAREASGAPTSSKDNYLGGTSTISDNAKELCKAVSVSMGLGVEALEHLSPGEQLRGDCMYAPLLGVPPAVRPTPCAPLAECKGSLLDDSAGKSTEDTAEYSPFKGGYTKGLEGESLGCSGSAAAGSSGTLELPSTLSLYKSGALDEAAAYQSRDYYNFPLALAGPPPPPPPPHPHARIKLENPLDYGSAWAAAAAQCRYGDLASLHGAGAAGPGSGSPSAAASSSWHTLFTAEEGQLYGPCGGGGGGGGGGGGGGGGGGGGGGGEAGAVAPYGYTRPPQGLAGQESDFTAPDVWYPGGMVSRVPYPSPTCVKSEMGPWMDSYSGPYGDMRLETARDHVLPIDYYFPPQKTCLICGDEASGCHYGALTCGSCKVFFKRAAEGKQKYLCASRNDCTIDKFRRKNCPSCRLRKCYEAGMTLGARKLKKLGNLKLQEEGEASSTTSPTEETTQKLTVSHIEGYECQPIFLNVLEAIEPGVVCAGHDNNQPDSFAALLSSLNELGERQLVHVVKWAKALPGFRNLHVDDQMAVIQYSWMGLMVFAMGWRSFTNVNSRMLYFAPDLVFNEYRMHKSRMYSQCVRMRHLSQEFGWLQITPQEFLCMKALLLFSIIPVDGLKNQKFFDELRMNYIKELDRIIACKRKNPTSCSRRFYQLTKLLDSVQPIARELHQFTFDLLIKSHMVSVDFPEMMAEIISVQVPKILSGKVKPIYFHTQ

[3] = target: T3, 17-beta-hydroxysteroid dehydrogenase type 3 (Homo sapiens, UniProt P37058)
T3 sequence (P37058 whole entry): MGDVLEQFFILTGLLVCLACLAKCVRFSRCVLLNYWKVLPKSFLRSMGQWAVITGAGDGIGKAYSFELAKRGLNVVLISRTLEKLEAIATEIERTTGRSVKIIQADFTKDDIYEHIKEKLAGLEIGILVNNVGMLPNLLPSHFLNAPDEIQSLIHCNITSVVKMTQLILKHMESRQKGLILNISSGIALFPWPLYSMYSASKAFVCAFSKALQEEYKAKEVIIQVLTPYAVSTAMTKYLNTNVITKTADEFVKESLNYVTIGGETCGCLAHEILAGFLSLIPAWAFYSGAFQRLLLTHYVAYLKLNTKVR
Description: Inhibition of human recombinant 17-beta-HSD3 expressed in human HeLa cells using androstenedione as substrate preincubated for 30 mins prior substrate addition measured after 120 mins by spectrophotometry

[4] = target: T4, 17-beta-hydroxysteroid dehydrogenase type 2 (Homo sapiens) (UniProt P37059); experiment: Inhibition of human recombinant 17-beta-HSD2 expressed in human HeLa cells using estradiol as substrate preincubated for 30 mins prior substrate addition measured after 120 mins by spectrophotometry; type: cell-based
T4 sequence (whole entry): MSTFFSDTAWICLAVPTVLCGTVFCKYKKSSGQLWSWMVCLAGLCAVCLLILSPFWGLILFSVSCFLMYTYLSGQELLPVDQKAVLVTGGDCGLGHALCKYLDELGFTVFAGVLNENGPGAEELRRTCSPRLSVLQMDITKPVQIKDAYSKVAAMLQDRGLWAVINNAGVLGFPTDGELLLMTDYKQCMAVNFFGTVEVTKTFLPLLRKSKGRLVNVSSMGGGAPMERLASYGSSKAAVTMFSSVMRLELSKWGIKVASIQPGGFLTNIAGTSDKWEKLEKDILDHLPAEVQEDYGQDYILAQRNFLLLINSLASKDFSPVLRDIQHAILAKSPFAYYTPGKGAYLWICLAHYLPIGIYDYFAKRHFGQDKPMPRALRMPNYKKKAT

[5] = target: T5, 17-beta-hydroxysteroid dehydrogenase type 1 (Homo sapiens) (UniProt P14061); experiment: Inhibition of human recombinant 17-beta-HSD1 expressed in human HeLa cells using estrone as substrate preincubated for 30 mins prior substrate addition measured after 120 mins by spectrophotometry; type: cell-based
T5 sequence (whole entry): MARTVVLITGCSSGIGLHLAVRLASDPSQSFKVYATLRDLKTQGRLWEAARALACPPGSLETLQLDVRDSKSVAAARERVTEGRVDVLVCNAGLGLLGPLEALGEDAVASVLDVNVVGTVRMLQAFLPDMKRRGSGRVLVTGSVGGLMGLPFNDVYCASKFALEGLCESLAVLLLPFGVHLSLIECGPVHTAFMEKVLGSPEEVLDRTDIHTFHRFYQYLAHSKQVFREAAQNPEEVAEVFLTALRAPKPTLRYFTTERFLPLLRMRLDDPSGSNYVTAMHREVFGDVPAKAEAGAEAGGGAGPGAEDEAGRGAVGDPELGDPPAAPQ

[6] = target: T6, Estrogen receptor (Homo sapiens) (UniProt P03372); experiment: Agonist activity at human Estrogen receptor ERalpha expressed in human HeLa cells assessed as DHT-induced response after 40 hrs by luciferase/beta-galactosidase-based reporter gene assay; type: functional, cell-based
T6 sequence (whole entry): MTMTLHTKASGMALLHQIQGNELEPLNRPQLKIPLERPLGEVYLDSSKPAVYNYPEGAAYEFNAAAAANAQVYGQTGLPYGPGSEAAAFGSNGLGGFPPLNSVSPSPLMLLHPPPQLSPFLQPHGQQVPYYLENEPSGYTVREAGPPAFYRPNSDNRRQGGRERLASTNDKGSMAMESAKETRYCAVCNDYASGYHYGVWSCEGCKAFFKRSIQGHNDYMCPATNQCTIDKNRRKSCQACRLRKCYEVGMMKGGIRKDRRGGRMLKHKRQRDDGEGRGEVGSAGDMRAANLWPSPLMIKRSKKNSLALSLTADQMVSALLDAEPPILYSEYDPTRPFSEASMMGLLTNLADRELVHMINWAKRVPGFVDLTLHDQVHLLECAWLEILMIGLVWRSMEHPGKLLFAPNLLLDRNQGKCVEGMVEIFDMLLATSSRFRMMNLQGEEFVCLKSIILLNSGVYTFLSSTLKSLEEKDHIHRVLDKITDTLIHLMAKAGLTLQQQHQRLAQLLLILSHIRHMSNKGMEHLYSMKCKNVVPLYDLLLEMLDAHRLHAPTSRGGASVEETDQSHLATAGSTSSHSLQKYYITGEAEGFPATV

[7] = target: T1, Glucocorticoid receptor (Homo sapiens); experiment: Agonist activity at human Glucocorticoid receptor expressed in human HeLa cells assessed as DHT-induced response after 40 hrs by luciferase/beta-galactosidase-based reporter gene assay; type: functional, cell-based
[8] = target: T6, Estrogen receptor (Homo sapiens); experiment: Antagonist activity at human ERalpha receptor expressed in human HeLa cells assessed as inhibition of DHT-induced response after 40 hrs by luciferase/beta-galactosidase-based reporter gene assay; type: functional, cell-based
[9] = target: T2, Androgen receptor (Homo sapiens); experiment: Agonist activity at human androgen receptor expressed in human HeLa cells assessed as DHT-induced response after 40 hrs by luciferase/beta-galactosidase-based reporter gene assay; type: functional, cell-based

Compound | Activity [1] | Activity [2] | pIC50 [3] | inhibition [4] | inhibition [5] | Activity [6] | Activity [7] | Activity [8] | Activity [9]
O=C1O/C(=C\c2ccc(O)c(Br)c2)C(=O)N1c1ccc(Cl)nc1 | inactive | inactive | 7.70 | inactive | inactive | inactive | inactive | inactive | inactive
O=C(c1ccc(N2C(=O)O/C(=C\c3ccc(O)c(Br)c3)C2=O)cc1)N1CCOCC1 | inactive | inactive | 6.52 | inactive | inactive | inactive | inactive | inactive | inactive
O=C1O/C(=C\c2ccc(O)c(Br)c2)C(=O)N1c1cccnc1 | inactive | inactive | 7.66 | inactive | inactive | inactive | inactive | inactive | inactive
COC(=O)c1ccc(N2C(=O)O/C(=C\c3ccc(O)c(Br)c3)C2=O)cc1 | inactive | inactive | 7.62 | inactive | inactive | inactive | inactive | inactive | inactive
CNC(=O)c1ccc(N2C(=O)O/C(=C\c3ccc(O)c(Br)c3)C2=O)cc1 | inactive | inactive | 7.25 | inactive | inactive | inactive | inactive | inactive | inactive
COc1ccc(N2C(=O)C(Cc3ccc(O)c(Br)c3)SC2=S)cc1 (configuration not stated) | inactive | inactive | 7.05 | inactive | inactive | inactive | inactive | inactive | inactive
COc1ccc(N2C(=O)/C(=C/c3ccc(O)c(Br)c3)SC2=S)cc1 | inactive | inactive |  | inactive | inactive | inactive | inactive | inactive | inactive

More lines, now with the values ahead:

Activity [1] | Activity [2] | pIC50 [3] | inhibition [4] | inhibition [5] | Activity [6] | Activity [7] | Activity [8] | Activity [9] | Compound
inactive | inactive | 6.05 | inactive | inactive | inactive | inactive | inactive | inactive | CS(=O)(=O)c1ccc(N2C(=O)O/C(=C\c3ccc(O)c(Br)c3)C2=O)cc1
inactive | inactive | 8.22 | inactive | inactive | inactive | inactive | inactive | inactive | O=C1/C(=C/c2ccc(O)c(Br)c2)OC(=S)N1c1ccc(Cl)cc1
inactive | inactive | 7.72 | inactive | inactive | inactive | inactive | inactive | inactive | N#Cc1ccc(N2C(=O)/C(=C/c3ccc(O)c(Br)c3)OC2=S)cc1
inactive | inactive |  | inactive | inactive | inactive | inactive | inactive | inactive | COc1ccc(N2C(=O)O/C(=C\c3ccc(O)c(Br)c3)C2=O)cc1
